Columns and labels:
plasma aldosterone = test: In vivo suppression of plasma aldosterone levels in ACTH-stimulated rats; parameters: species or system Wistar rats; conditions: 4 mg/kg p.o.; plasma level 2 h after administration relative to 1 h prior to administration
Method: (§1) The aldosterone- and corticosterone-suppressing activity of herein described compounds may be assessed with the following in vivo protocol.
(§2) Adult male Wistar rats weighing between 250 and 350 grams are kept under the usual 12 hour light and 12 hour dark conditions at a temperature of 23° C.±2° C. On the first day of the experiment, the animals receive a subcutaneous injection of a depot ACTH product in a dose of 1.0 mg/kg weight (SYNACTHEN-Depot, Novartis, Basel, CH) 16 hours prior to the administration of a test compound. […] An alternative method to stimulate aldosterone secretion consists in subjecting rats to a low salt diet for 48 hours and applying the diuretic furosemide at 10 mg/kg by subcutaneous or intraperitoneal administration 16 hours, respectively 2 hours prior to the start of the experiment. […] The aldosterone and corticosterone concentrations of the plasma samples can be determined with a radioimmunoassay as described above for the in vitro test systems.
(§3) The selective suppression of plasma steroid levels as for instance aldosterone in comparison to corticosterone may serve as a measure for in vivo bioavailability and pharmacodynamic enzyme inhibitory activity of the herein described compounds. The evaluation of the data may occur relative to the application of vehicle or quantitatively by determination of the area under the curve (AUC). […]

plasma corticosterone = test: In vivo suppression of plasma corticosterone levels in ACTH-stimulated rats; parameters: species or system Wistar rats; conditions: 4 mg/kg p.o.; plasma level 2 h after administration relative to 1 h prior to administration
Method: as §1, §2, §3

N#Cc1ccc2c(c1)C1(CCC2)OCCn2cncc21 (centres unmarked) [Example 10, spiro-[(5,6-Dihydro-8H-imidazo[5,1-c][1,4]oxazine)-8,8′-(5′,6′,7′,8′-tetrahydronaphthalene-2′-carbonitrile)]]
Aldosterone levels (% change at 2 h) (plasma aldosterone): −81.7%
Corticosterone levels (% change at 2 h) (plasma corticosterone): −14.5%
